Data as given in patent US20060009428A1, “Cyclic progestin regimens and kits” (Wyeth, priority 2004, published 2006).
Where “and” joins values, the source holds several entries; their conditions need not be identical. Equal values may be shown once.

Experiments:
Type in all cases: in vivo
[1] = tested on: ovulation in adult female rats; experiment: Rat ovulation inhibition assay; conditions: po, once daily for 4 days, Sprague-Dawley rats
Method: The ovulation inhibition assay measures a compound's ability to inhibit ovulation in adult female rats. This activity is essential for contraceptive efficacy.
Random cycling mature female Sprague-Dawley rats (˜200 g) were obtained from Charles River Laboratory (Boston, Mass.). Rats were synchronized for estrus with 2 μg of LHRH (in phosphate buffered saline containing 0.1% bovine serum albumin) administered subcutaneously (sc) per rat at 0900 h and again at 1600 h. Animals were allowed to rest for 8 days before the administration of test compounds. Animals were then grouped, with 7 to 9 rats per treatment group. The morning of the ninth day following LHRH treatment, the rats were treated with test compounds once daily, by gavage. This continued for 4 consecutive days. The animals were euthanized the morning following the last treatment. Oviducts were removed, placed between 2 glass slides, and viewed through a dissecting microscope to count ova. The number of animals presenting ova in the oviduct from each treatment group and the number of ova in the oviduct of each animal were recorded.

[2] = biological target: T1, progesterone receptor (Rattus norvegicus, UniProt Q63449); experiment: Rat uterine decidualization assay in adult ovariectomized rats; conditions: for ED50: rat, read-out: Rat Decidual Assay ED50
T1 construct: the uterine decidualization assay in adult ovariectomized rats; from tissue; host or cells: uterus of live ovariectomized Sprague-Dawley rats (in vivo)
T1 sequence (Q63449 1-923): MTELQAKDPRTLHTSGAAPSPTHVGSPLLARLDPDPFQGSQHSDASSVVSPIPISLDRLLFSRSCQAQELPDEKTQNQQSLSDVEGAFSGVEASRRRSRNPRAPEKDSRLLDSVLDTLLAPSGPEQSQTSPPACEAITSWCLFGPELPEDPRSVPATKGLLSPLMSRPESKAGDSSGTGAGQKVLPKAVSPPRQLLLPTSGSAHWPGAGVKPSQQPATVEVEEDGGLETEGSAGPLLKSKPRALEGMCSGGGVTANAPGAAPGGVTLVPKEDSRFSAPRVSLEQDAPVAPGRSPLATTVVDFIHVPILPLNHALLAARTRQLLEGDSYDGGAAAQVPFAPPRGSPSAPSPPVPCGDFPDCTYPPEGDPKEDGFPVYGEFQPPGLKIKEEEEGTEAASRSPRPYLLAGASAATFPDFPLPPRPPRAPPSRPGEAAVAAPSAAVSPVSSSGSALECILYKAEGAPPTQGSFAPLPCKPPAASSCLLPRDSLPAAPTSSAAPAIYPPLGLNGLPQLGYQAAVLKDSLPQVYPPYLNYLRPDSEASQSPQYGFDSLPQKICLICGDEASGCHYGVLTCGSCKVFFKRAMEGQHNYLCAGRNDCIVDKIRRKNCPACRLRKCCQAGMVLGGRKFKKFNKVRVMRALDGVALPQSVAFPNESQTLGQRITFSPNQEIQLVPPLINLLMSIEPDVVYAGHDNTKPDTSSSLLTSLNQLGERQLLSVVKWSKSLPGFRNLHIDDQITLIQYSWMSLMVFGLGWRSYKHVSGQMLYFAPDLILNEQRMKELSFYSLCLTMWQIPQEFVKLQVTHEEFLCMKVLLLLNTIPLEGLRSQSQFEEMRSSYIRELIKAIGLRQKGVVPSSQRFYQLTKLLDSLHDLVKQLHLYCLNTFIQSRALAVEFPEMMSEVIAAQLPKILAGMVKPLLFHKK
Method: The second rat model to determine progestational activity is the uterine decidualization assay in adult ovariectomized rats.
Briefly, mature female Sprague-Dawley rats (˜220 g) were ovariectomized at least 10 days prior to treatment to reduce circulating sex steroids. […] Approximately 24 hours after the third daily treatment, decidualization was induced in onel uterine horn of each anesthetized rat by scratching the antimesometrial luminal epithelium with a blunt 21-gauge needle. The contralateral horn was not scratched and served as a non-stimulated control. Animals were euthanized by CO2 asphyxiation 24 hoursr following the final treatment. The uteri were removed, and trimmed of fat, and the decidualized (D) and control (C) horns were weighed separately. The decidual response is expressed as D/C.

[3] = tested on: estrogen-induced C3 expression in the uterine epithelium; experiment: Adult ovariectomized rat uterine C3 model; conditions: po, once daily for 2 days, with EE 0.08 mg/kg on day 2; for ED50: Rattus norvegicus, 48 h
Method: The third model for PR agonist activity was the adult ovariectomized rat uterine C3 model. This assay evaluates the ability of a progestin to block estrogen-induced C3 expression in the uterine epithelium.
Ovariectomized female, 60 day-old Sprague-Dawley rats were obtained from Harlan (Indianapolis, Ind.). Ovariectomies were performed by the supplier a minimum of 8 days prior tobefore treatment. The rats were randomized and placed in groups of 6. The animals were treated once daily for (2) two days orally by gavage (p.o.) in a volume of 0.5 mL. On the second day of treatment, the animals were also treated with EE (0.08 mg/kg body weight (BW)) orally by gavage. Approximately 24 hours after the final treatment, the animals were euthanized by CO2 asphyxiation. The uteri were then removed, stripped of remaining fat and mesentery, weighed, and snap-frozen on dry ice. Total RNA was isolated from the uteri using the Trizol Reagent (GibcoBRL) as described by the manufacturer. Real-time reverse transcription polymerase chain reaction (RT-PCR) as previously reported [Sampath D, et al., “Aberrant expression of Cyr61, a member of the CCN (CTGF/Cyr61/Cef10/NOVH) family, and dysregulation by 17b-estradiol and basic fibroblast growth factor in human uterine leiomyomas” J Clin Endocrinol Metab. 2001; 86:1707-1715] was used to quantitate complement C3 expression. Briefly, RNA samples were DNAse-I treated using a DNA-free kit (Ambion). A total of 50 ng of RNA was analyzed in triplicate using C3 specific primer pair (5′primer […] [SEQ ID NO: 1], 3]primer […] [SEQ ID NO: 2]) and customized probe (6FAM-[…]-TAMRA [SEQ ID NO: 3]). C3 messenger RNA (mRNA) levels were normalized to 18s 18S ribosomal RNA contained within each sample reaction using primers and probe supplied by PE Applied Biosystems.

[4] = tested on: rabbit endometrial transformation; experiment: Rabbit endometrial transformation (Clauberg) assay; conditions: for ED50: Oryctolagus cuniculus, 120 h, read-out: Rabbit Clauberg Assay estimated ED50 (AED50)
Method: In addition to the rat progestational models described above, NSP-989 was also evaluated in the Clauberg model, a classic progestational assay in the rabbit endometrial transformation model [McPhail MK, “The assay of progestin.” J Physiol. 1934; 83:145-1567]. Briefly, immature female New Zealand White rabbits (˜1 kg body weight) were injected subcutaneously with 5 μg 17β-estradiol (E2)/rabbit/day for six consecutive days. Beginning 24 hours after the final E2 injection, vehicle alone or test compounds were given orally for (5) five consecutive days. Progestational activity was determined by increases in uterine weight and endometrial glandular arborization (McPhail Index).

[5] = po, once daily for 7 days, ovariectomized rats
[6] = po, 5 days, estradiol-primed immature rabbits, limited dose response studies

SMILES: Cn1c(C#N)ccc1-c1ccc2c(c1)C(C)(C)OC(=S)N2 [NSP-989, 5-(4,4-Dimethyl-2-thioxo-1,4-dihydro-2H-benzo[d] [1,3]oxazin-6-yl)-1-methyl-1H-pyrrole-2-carbonitrile]
- Rat Ovulation Inhibition Assay ED100 [1]: 0.03 mg/kg
- ED50 [2, 5]: 0.01 mg/kg
- Potency in decidualization relative to MPA (fold more potent) ([2]; versus MPA): approximately 40 fold
- Potency in decidualization relative to TMG (fold more potent) ([2]; versus TMG): ~100 fold
- ED50 [3]: 0.0005 mg/kg
- ED50 [4, 6]: 0.001 mg/kg
- Potency in Clauberg assay relative to MPA (fold more potent) ([4]; versus MPA): about 30 fold

SMILES: CC(=O)O[C@]1(C(C)=O)CC[C@H]2[C@@H]3C[C@H](C)C4=CC(=O)CC[C@]4(C)[C@H]3CC[C@@]21C [MPA, medroxyprogesterone acetate]
- Rat Ovulation Inhibition Assay ED100 [1]: 1 mg/kg and 1.0 mg/kg
- ED50 [2, 5]: 0.4 mg/kg
- ED50 [3]: 0.03 mg/kg
- ED50 [4, 6]: 0.03 mg/kg

SMILES: C[C@H](O)C(=O)[C@@]1(C)CC[C@H]2[C@@H]3CCC4=CC(=O)CCC4=C3CC[C@@]21C [TMG, trimegestone]
- Rat Ovulation Inhibition Assay ED100 [1]: 1 mg/kg and 1.0 mg/kg
- Rat Decidual Assay ED50 [2, 5]: 1.0 mg/kg
- Rat C3 Assay ED50 [3]: 0.005 mg/kg
- Rabbit Clauberg Assay estimated ED50 (AED50) [4, 6]: 0.001 mg/kg
